# In patent publication US11566002B2, “Substituted tetrahydrocyclopenta[C]pyrroles, substituted dihydropyrrolizines, analogues thereof, and methods using same” (priority 2018, dated 2023):
# System: HBV rcDNA
# Assay: HepDE19 assay with bDNA quantitation of HBV rcDNA
# Assay type: cell-based, hepatitis B virus
# Conditions: HepDE19 cells, Tet-free medium, 7 day-incubation, rcDNA measured by Quantigene 2.0 bDNA assay, top concentration 25 μM; read-out: DE-19 bDNA EC50
# Protocol: HepDE19 Assay with bDNA Quantitation of HBV rcDNA:
# HepDE19 cell culture system is a HepG2 (human hepatocarcinoma) derived cell line that supports HBV DNA replication and cccDNA formation in a tetracycline (Tet)-regulated manner and produces HBV rcDNA and a detectable reporter molecule dependent on the production and maintenance of cccDNA (Guo, et al., 2007, J. Virol. 81:12472-12484).
# HepDE19 (50,000 cells/well) were plated in 96-well collagen-coated tissue-culture treated microtiter plates in DMEM/F12 medium supplemented with 10% fetal bovine serum, 1% penicillin-streptomycin and 1 μg/mL tetracycline and incubated in a humidified incubator at 37° C. and 5% CO2 overnight. Next day, the cells were switched to fresh medium without tetracycline and incubated for 4 hours at 37° C. and 5% CO2. The cells were treated with fresh Tet-free medium with compounds at concentrations starting at 25 μM and a serial, ½ log, 8-point, titration series in duplicate. The final DMSO concentration in the assay was 0.5%. The plates were incubated for 7 days in a humidified incubator at 37° C. and 5% CO2. Following a 7 day-incubation, the level of rcDNA present in the inhibitor-treated wells was measured using a Quantigene 2.0 bDNA assay kit (Affymetrix, Santa Clara, Calif.) with HBV specific custom probe set and manufacturers instructions. Concurrently, the effect of compounds on cell viability was assessed using replicate plates, plated at a density of 5,000 cells/well and incubated for 4 days, to determine the ATP content as a measure of cell viability using the cell-titer glo reagent (CTG; Promega Corporation, Madison, Wis.) as per manufacturer's instructions. The plates were read using a Victor luminescence plate reader (PerkinElmer Model 1420 Multilabel counter) and the relative luminescence units (RLU) data generated from each well was calculated as % inhibition of the untreated control wells and analyzed using XL-Fit module in Microsoft Excel to determine EC50 and EC90 (bDNA) and CC50 (CTG) values using a 4-parameter curve fitting algorithm.
# Representative compounds of the invention were tested for their abilities to inhibit formation of relaxed circular DNA (rcDNA) in a HepDE19 assay, as described elsewhere herein.
row,SMILES,EC50
1,"C#CCOC(=O)NC1CCc2c1cn(C)c2C(=O)Nc1ccc(F)c(Cl)c1 (single isomer, unassigned) [Compound 101, Prop-2-yn-1-yl (1-((3-chloro-4-fluorophenyl)carbamoyl)-2-methyl-2,4,5,6-tetrahydrocyclopenta[c]pyrrol-4-yl)carbamate]",1.6 µM
2,"CNC(=O)NC1CCc2c1c[nH]c2C(=O)Nc1ccc(F)c(Cl)c1 (single isomer, unassigned) [Compound 10, N-(3-Chloro-4-fluorophenyl)-4-(3-methylureido)-2,4,5,6-tetrahydrocyclopenta[c]pyrrole-1-carboxamide]",16 µM
3,"Cn1c(C(=O)Nc2ccc(F)c(Cl)c2)c2c(c1C(F)(F)F)C(NC(=O)OCc1cn[nH]n1)CC2 (single isomer, unassigned) [Compound 133, (2H-1,2,3-Triazol-4-yl)methyl (1-((3-chloro-4-fluorophenyl)carbamoyl)-2-methyl-3-(trifluoromethyl)-2,4,5,6-tetrahydrocyclopenta[c]pyrrol-4-yl)carbamate]",0.43 µM
4,"CCn1cc2c(c1C(=O)Nc1ccc(F)c(Cl)c1)CCC2NC(=O)OCc1ncn(C)n1 (single isomer, unassigned) [Compound 19, (1-Methyl-1H-1,2,4-triazol-3-yl)methyl (1-((3-chloro-4-fluorophenyl)carbamoyl)-2-ethyl-2,4,5,6-tetrahydrocyclopenta[c]pyrrol-4-yl)carbamate]",2.1 µM
5,"Cn1cnc(COC(=O)NC2CCn3c(C(=O)Nc4ccc(F)c(Cl)c4)ccc32)n1 (single isomer, unassigned) [Compound 40, (1-Methyl-1H-1,2,4-triazol-3-yl)methyl (5-((3-chloro-4-fluorophenyl)carbamoyl)-2,3-dihydro-1H-pyrrolizin-1-yl)carbamate]",6.6 µM
6,"Cn1cc2c(c1C(=O)Nc1ccc(F)c(Cl)c1)CCC2NC(=O)C1CC1 (single isomer, unassigned) [Compound 24, N-(3-Chloro-4-fluorophenyl)-4-(cyclopropanecarboxamido)-2-methyl-2,4,5,6-tetrahydrocyclopenta [c]pyrrole-1-carboxamide]",1.6 µM
7,"Cc1n[nH]nc1COC(=O)NC1CCc2c1cn(C)c2C(=O)Nc1ccc(F)c(Cl)c1 (single isomer, unassigned) [Compound 139, (5-Methyl-2H-1,2,3-triazol-4-yl)methyl (1-((3-chloro-4-fluorophenyl)carbamoyl)-2-methyl-2,4,5,6-tetrahydrocyclopenta[c]pyrrol-4-yl)carbamate]",3.6 µM
8,Cn1cnc(COC(=O)NC2CCc3c2c(C(F)(F)F)n(C)c3C(=O)Nc2ccc(F)c(Cl)c2)n1 (stereo not drawn) [Compound 122],0.45 µM
9,"Cn1cc2c(c1C(=O)Nc1ccc(F)c(Cl)c1)CCC2NC(=O)OCc1ncco1 (single isomer, unassigned) [Compound 34, Oxazol-2-ylmethyl (1-((3-chloro-4-fluorophenyl)carbamoyl)-2-methyl-2,4,5,6-tetrahydrocyclopenta[c]pyrrol-4-yl)carbamate]",0.08 µM
10,"Cn1cc(COC(=O)NC2CCc3c2cn(C)c3C(=O)Nc2ccc(F)c(Cl)c2)nn1 (single isomer, unassigned) [Compound 117, (1-Methyl-1H-1,2,3-triazol-4-yl)methyl (1-((3-chloro-4-fluorophenyl)carbamoyl)-2-methyl-2,4,5,6-tetrahydrocyclopenta[c]pyrrol-4-yl)carbamate]",6.1 µM
11,"Cn1cc2c(c1C(=O)Nc1ccc(F)c(Cl)c1)CCC2NC(=O)OCC#CC1CC1 (single isomer, unassigned) [Compound 115, 3-Cyclopropylprop-2-yn-1-yl (1-((3-chloro-4-fluorophenyl)carbamoyl)-2-methyl-2,4,5,6-tetrahydrocyclopenta[c]pyrrol-4-yl)carbamate]",5.4 µM
12,"Cn1cc2c(c1C(=O)Nc1ccc(F)c(Cl)c1)CCC2NC(=O)OCc1cnco1 (single isomer, unassigned) [Compound 37, Oxazol-5-ylmethyl (1-((3-chloro-4-fluorophenyl)carbamoyl)-2-methyl-2,4,5,6-tetrahydrocyclopenta[c]pyrrol-4-yl)carbamate]",2.6 µM
13,"Cn1cc2c(c1C(=O)Nc1ccc(F)c(Cl)c1)CCC2NC(=O)OCc1ncco1 (single isomer, unassigned) [Compound 35, Oxazol-2-ylmethyl (1-((3-chloro-4-fluorophenyl)carbamoyl)-2-methyl-2,4,5,6-tetrahydrocyclopenta[c]pyrrol-4-yl)carbamate]",1.8 µM
14,"Cn1cc2c(c1C(=O)Nc1ccc(F)c(Cl)c1)CCC2NC(=O)OCc1n[nH]nc1C1CC1 (single isomer, unassigned) [Compound 147, (5-Cyclopropyl-2H-1,2,3-triazol-4-yl)methyl (1-((3-chloro-4-fluorophenyl)carbamoyl)-2-methyl-2,4,5,6-tetrahydrocyclopenta[c]pyrrol-4-yl)carbamate]",3.6 µM
15,"Cn1cc2c(c1C(=O)Nc1ccc(F)c(Cl)c1)CCC2NC(=O)OCC1(C(N)=O)CC(F)(F)C1 (single isomer, unassigned) [Compound 55, (1-Carbamoyl-3,3-difluorocyclobutyl)methyl(1-((3-chloro-4-fluorophenyl)carbamoyl)-2-methyl-2,4,5,6-tetrahydrocyclopenta[c]pyrrol-4-yl)carbamate]",4.4 µM
16,"Cn1nnc(COC(=O)NC2CCc3c2cn(C)c3C(=O)Nc2ccc(F)c(Cl)c2)n1 (stereo not drawn) [Compound 143, (2-Methyl-1H-tetrazol-5-yl)methyl(1-((3-chloro-4-fluorophenyl)carbamoyl)-2-methyl-2,4,5,6-tetrahydrocyclopenta[c]pyrrol-4-yl)carbamate]",0.07 µM
17,"Cn1cc2c(c1C(=O)Nc1ccc(F)c(Cl)c1)CCC2NC(=O)OC[C@H]1CCC(=O)N1 (single isomer, unassigned) [Compound 121]",4 µM
18,"Cn1cc2c(c1C(=O)Nc1ccc(F)c(Cl)c1)CCC2NC(=O)OCc1ccccn1 (stereo not drawn) [Compound 7, pyridin-2-ylmethyl(1-((3-chloro-4-fluorophenyl)carbamoy1)-2-methyl-2,4,5,6-tetrahydrocyclopenta[c]pyrrol-4-yl)carbamate]",1.4 µM
19,"Cn1cc2c(c1C(=O)Nc1ccc(F)c(Cl)c1)CCC2NC(=O)OCC#CC1CC1 (single isomer, unassigned) [Compound 114, 3-Cyclopropylprop-2-yn-1-yl (1-((3-chloro-4-fluorophenyl)carbamoyl)-2-methyl-2,4,5,6-tetrahydrocyclopenta[c]pyrrol-4-yl)carbamate]",0.47 µM

# Same assay, conditions: Hepatitis B virus, HepDE19, 168 h, HepDE19 cells, Tet-free medium, 7 day-incubation, rcDNA measured by Quantigene 2.0 bDNA assay, top concentration 25 μM; read-out: DE-19 bDNA EC50
row,SMILES,EC50
1,"Cn1cnc(COC(=O)NC2CCc3c2cn(C)c3C(=O)Nc2cc(F)c(F)c(F)c2)n1 (single isomer, unassigned) [Compound 71, (1-methyl-1H-1,2,4-triazol-3-yl)methyl (2-methyl-1-((3,4,5-trifluorophenyl)carbamoyl)-2,4,5,6-tetrahydrocyclopenta[c]pyrrol-4-yl)carbamate]",0.18 µM
2,"Cn1ccc(COC(=O)NC2CCCc3c2cn(C)c3C(=O)Nc2ccc(F)c(Cl)c2)n1 (single isomer, unassigned) [Compound 31, (1-Methyl-1H-pyrazol-3-yl)methyl (1-((3-chloro-4-fluorophenyl)carbamoyl)-2-methyl-4,5,6,7-tetrahydro-2H-isoindol-4-yl)carbamate]",0.5 µM
3,"Cn1cc2c(c1C(=O)Nc1ccc(F)c(Cl)c1)CCC2NC(=O)OCc1ccn(C2CCCCO2)n1 (stereo not drawn) [Compound 63, (1-(Tetrahydro-2H-pyran-2-yl)-1H-pyrazol-3-yl)methyl (1-((3-chloro-4-fluorophenyl)carbamoyl)-2-methyl-2,4,5,6-tetrahydrocyclopenta[c]pyrrol-4-yl)carbamate]",0.14 µM
4,"Cn1cc2c(c1C(=O)Nc1ccc(F)c(Cl)c1)CCC2NC(=O)OCC1(C(=O)O)CC(F)(F)C1 (racemic) [Compound 53, 1-((((1-((3-chloro-4-fluorophenyl)carbamoyl)-2-methyl-2,4,5,6-tetrahydrocyclopenta [c]pyrrol-4-yl)carbamoyl)oxy)methyl)-3,3-difluorocyclobutane-1-carboxylic acid]",2.7 µM

# Same assay, conditions: read-out: DE-19 bDNA EC50; HepDE19 cells, Tet-free medium, 7 day-incubation, rcDNA measured by Quantigene 2.0 bDNA assay, top concentration 25 μM
row,SMILES,EC50
1,"CCC#CCOC(=O)NC1CCc2c1cn(C)c2C(=O)Nc1ccc(F)c(Cl)c1 (single isomer, unassigned) [Compound 112, Pent-2-yn-1-yl(1-((3-chloro-4-fluorophenyl)carbamoyl)-2-methyl-2,4,5,6-tetrahydrocyclopenta[c]pyrrol-4-yl)carbamate]",5.7 µM
